Data: the Deep4Chem optical property database

Assay: photoluminescence quantum yield (fraction); solvent given as SMILES

Compound [BH3-][P+]1(c2ccccc2)c2ccccc2-c2sc3ccccc3c21 (centres undefined) has a photoluminescence quantum yield (in ClCCl) of 0.38.
With CC(C)(C)c1ccc2oc3nc4oc5ccc(N6c7ccccc7Sc7ccccc76)cc5c4cc3c2c1 the photoluminescence quantum yield (in ClC(Cl)Cl) was 0.016.
In the case of CN(C)c1cc(-c2ccccc2)cc2cc(C#Cc3ccncc3)ccc12, the photoluminescence quantum yield (in ClCCl) is reported as 0.72.
Compound c1ccc(N2N=C(c3cccc4ccccc34)CC2c2ccc3ccc4cccc5ccc2c3c45)cc1 (centres undefined) has a photoluminescence quantum yield (in ClCCl) of 0.58.
Compound CCOc1ccc2c(-c3nc(-c4ccccc4)no3)cc(=O)oc2c1 has a photoluminescence quantum yield (in CCO) of 0.6 and a photoluminescence quantum yield (in ClC(Cl)Cl) of 0.31.
With O=C(Nc1ccccc1[N+](=O)[O-])c1ccc2oc(-c3cc4ccccc4oc3=O)nc2c1 the photoluminescence quantum yield (in ClCCl) was 0.12.
With Clc1cc(Cl)c([C](c2c(Cl)cc(Cl)cc2Cl)c2c(Cl)cc(Cl)cc2Cl)c(Cl)c1 the photoluminescence quantum yield (in C1CCCCC1) was 0.008.
For CCn1c2ccccc2c2cc(C#Cc3cc(C#Cc4ccc5c(c4)c4ccccc4n5CC)nc(N4CCCCC4)n3)ccc21, the photoluminescence quantum yield (in C1CCOC1) was 0.21, the photoluminescence quantum yield (in CCOC(C)=O) was 0.17 and the photoluminescence quantum yield (in CN(C)C=O) was 0.15. It also gave a photoluminescence quantum yield (in Cc1ccccc1) of 0.21 and a photoluminescence quantum yield (in ClCCl) of 0.2.
COCCC1=Cc2nc1ccc1[nH]c(cc1CCOC)c1nc(ccc3[nH]c2cc3CCOC)C(CCOC)=C1 showed a photoluminescence quantum yield (in Cc1ccccc1) of 0.47.
In the case of O=C(O)CCNc1cccc2ccccc12, the photoluminescence quantum yield (in CCO) is reported as 0.54.
In the case of CCCCCCCN1C(=CC2=C([O-])C(=Cc3sc4ccccc4[n+]3CCCCCCC)C2=C(C#N)C#N)Sc2ccccc21, the photoluminescence quantum yield (in C1COCCO1) is reported as 0.09, the photoluminescence quantum yield (in CCO) is reported as 0.14 and the photoluminescence quantum yield (in CN(C)C=O) is reported as 0.14. The photoluminescence quantum yield (in ClC(Cl)Cl) was 0.13.
In the case of CCNc1cc2c(cc1C)C(c1ccccc1C(=O)O)=C1CCCC(/C=C/C3=[N+](C)c4ccc5ccccc5c4C3(C)C)=C1O2, the photoluminescence quantum yield (in CC#N) is reported as 0.22, the photoluminescence quantum yield (in CCO) is reported as 0.34 and the photoluminescence quantum yield (in CO) is reported as 0.33. For the same compound, the photoluminescence quantum yield (in ClC(Cl)Cl) was 0.48.
COc1nc(Cl)nc(Nc2ccc3c4c(cccc24)C(=O)c2ccccc2-3)n1 showed a photoluminescence quantum yield (in CC#N) of 0.52, a photoluminescence quantum yield (in CC(C)=O) of 0.54 and a photoluminescence quantum yield (in CC(C)O) of 0.5. It also gave a photoluminescence quantum yield (in CCCCOCCCC) of 0.05, a photoluminescence quantum yield (in CCOC(C)=O) of 0.34 and a photoluminescence quantum yield (in CCOCC) of 0.12. It also gave a photoluminescence quantum yield (in CO) of 0.33, a photoluminescence quantum yield (in Cc1ccccc1) of 0.27 and a photoluminescence quantum yield (in Clc1ccccc1) of 0.5. The photoluminescence quantum yield (in N#Cc1ccccc1) was 0.58 and the photoluminescence quantum yield (in O=C1CCCCC1) was 0.51.
In the case of Clc1ccc2nc3cc4ccccc4cc3c(-c3ccccc3)c2c1, the photoluminescence quantum yield (in ClCCl) is reported as 0.38.
CCc1cccc(CC)c1-c1c2ccccc2c(-c2c(CC)cccc2CC)c2cc3ccccc3cc12 showed a photoluminescence quantum yield (in ClCCl) of 0.56.
For CCCCCCCCn1c(=O)c2cc3cc4cc5c(=O)n(CCCCCCCC)c(=O)c5cc4c(-c4ccc(N(c5ccccc5)c5ccccc5)cc4)c3cc2c1=O, the photoluminescence quantum yield (in ClC(Cl)Cl) was 0.04.
For N#CC(C#N)=Cc1ccc(-c2ccc(N(c3ccccc3)c3ccccc3)cc2)o1, the photoluminescence quantum yield (in ClC(Cl)Cl) was 0.19.
In the case of c1cc2cc(c1)c1ccc3ccc4ccc(cc4c3c1)c1ccc3ccc4ccc(cc4c3c1)c1cccc2c1, the photoluminescence quantum yield (in Cc1ccccc1) is reported as 0.92.
CC1=[N+]2C(=C(c3ccccc3)c3c4c(c(C)n3[B-]2(F)F)CCc2ccccc2-4)C2=C1CCc1ccccc12 gave a photoluminescence quantum yield (in CC#N) of 0.1.
Work on CN(C)c1ccc(/C=C/c2nc3c4ccccc4c4ccccc4c3[nH]2)cc1 yielded a photoluminescence quantum yield (in C1CCOC1) of 0.055, a photoluminescence quantum yield (in C1COCCO1) of 0.176 and a photoluminescence quantum yield (in CC1CCCCC1) of 0.195. For the same compound, the photoluminescence quantum yield (in CC#N) was 0.058, the photoluminescence quantum yield (in CCOC(C)=O) was 0.048 and the photoluminescence quantum yield (in CCOCC) was 0.147. The photoluminescence quantum yield (in CN(C)C=O) was 0.04, the photoluminescence quantum yield (in COC(C)=O) was 0.03 and the photoluminescence quantum yield (in CS(C)=O) was 0.067. It also gave a photoluminescence quantum yield (in Cc1ccccc1) of 0.114 and a photoluminescence quantum yield (in ClC(Cl)Cl) of 0.035.
CC1(C)C(/C=C/C2=C(Cl)C(=C/C=C3/N(Cc4ccccc4)c4ccccc4C3(C)C)/CCC2)=[N+](Cc2ccccc2)c2ccccc21 gave a photoluminescence quantum yield (in CCO) of 0.117.
In the case of COc1cn2cc(-c3ccc(C#N)cc3)[n-][n+]2c1, the photoluminescence quantum yield (in ClCCl) is reported as 0.57.
CCCN1c2ccccc2Sc2cc(/C=C\c3cc(=O)oc4c(O)c(O)ccc34)ccc21 gave a photoluminescence quantum yield (in ClC(Cl)Cl) of 0.37.
Compound COc1ccc(/C=C(\c2ccccc2)c2nc3ccccc3s2)cc1 has a photoluminescence quantum yield (in CO) of 0.001.
In the case of O=Cc1ccc(-c2ccc(O)c(-c3nc4ccccc4s3)c2)o1, the photoluminescence quantum yield (in CCO) is reported as 0.0246, the photoluminescence quantum yield (in ClCCl) is reported as 0.0632 and the photoluminescence quantum yield (in O) is reported as 0.02.
CC(C)(C)C1=CC2=C3C(=CC=C4C=CC(c5cc6c7cc(-c8ccc9ccc%10cc(C(C)(C)C)cc%11ccc8c9c%10%11)ccc7c(-c7ccc8ccc9cc(C(C)(C)C)cc%10ccc7c8c9%10)cc6c6cc(-c7ccc8ccc9cc(C(C)(C)C)cc%10ccc7c8c9%10)ccc56)=C(C=C2)C43)C1 (centres undefined) showed a photoluminescence quantum yield (in ClCCl) of 0.874.
For CC1=[N+]2C(=C(c3ccccc3)c3c4c5ccccc5c5ccccc5c4c(C)n3[B-]2(F)F)c2c1c1ccccc1c1ccccc21, the photoluminescence quantum yield (in CCCCCC) was 0.94.
Cc1cc(-c2nc(-c3ccccc3)nc(-c3ccccc3)n2)ccc1-n1c2ccccc2c2cc3c(cc21)C1c2ccccc2C3c2ccccc21 showed a photoluminescence quantum yield (in Cc1ccccc1) of 0.6 and a photoluminescence quantum yield (in O=P(c1ccccc1)(c1ccccc1)c1ccccc1Oc1ccccc1P(=O)(c1ccccc1)c1ccccc1) of 0.32.
CCCC1=Cc2nc1ccc1[nH]c(cc1CCC)c1nc(c(OC(C)=O)cc3[nH]c2cc3CCC)C(CCC)=C1 gave a photoluminescence quantum yield (in Cc1ccccc1) of 0.28.
Compound CCCCCCCCCCc1cc(-c2cc(CCCCCCCCCC)c(-c3cccs3)s2)sc1-c1cccs1 has a photoluminescence quantum yield (in CCC(C)C) of 0.16.
For CN(C)c1ccc(/C=C/c2nc(N3CCOCC3)c3c([n+]2[O-])CCCC3)cc1, the photoluminescence quantum yield (in ClCCl) was 0.01.
CC(C)c1cccc(C(C)C)c1-n1c(=O)c2cc3nc(-c4ccccc4)c4cc5c(=O)n(-c6c(C(C)C)cccc6C(C)C)c(=O)c6cc7nc(-c8ccccc8)c8cc(c1=O)c2c1c3c4c(c65)c7c81 showed a photoluminescence quantum yield (in ClC(Cl)Cl) of 0.25.
O=[N+]([O-])c1ccc(-c2nc(/C=C/c3ccc(Cl)cc3)c(/C=C/c3ccc(Cl)cc3)[nH]2)cc1 showed a photoluminescence quantum yield (in ClCCl) of 0.
Work on C#Cc1ccc(/C2=c3\cc/c([nH]3)=C(\c3ccc(C#C)cc3)C3=N/C(=C(/c4cc(C(C)(C)C)cc(C(C)(C)C)c4)c4cc(c[nH]4)/C(c4cc(C(C)(C)C)cc(C(C)(C)C)c4)=C4/C=CC2=N4)C=C3)cc1 yielded a photoluminescence quantum yield (in CC(=O)N(C)C) of 0.0578.
c1cc2ccc1-c1ccc(cc1)-c1ccc(s1)-c1ccc(cc1)-c1ccc(cc1)-c1ccc(s1)-c1ccc(cc1)-c1ccc(cc1)-c1ccc-2s1 gave a photoluminescence quantum yield (in C1CCOC1) of 0.27.
Cc1ccc2nc3cc4ccccc4cc3c(-c3ccccc3)c2c1 showed a photoluminescence quantum yield (in ClCCl) of 0.47.
Work on Cc1ccc2c(c1)C(=O)c1ccncc1-2 yielded a photoluminescence quantum yield (in CC#N) of 0.019, a photoluminescence quantum yield (in CCCCCC) of 0.0032 and a photoluminescence quantum yield (in CCOC(C)=O) of 0.036. The photoluminescence quantum yield (in Cc1ccccc1) was 0.031 and the photoluminescence quantum yield (in ClCCl) was 0.022.
In the case of N#C/C(=C\c1ccc(Cl)cc1)c1nc(-c2ccccc2)c(-c2ccccc2)s1, the photoluminescence quantum yield (in CC#N) is reported as 0.004.
O=C1c2ccccc2C2=Cc3ccccc3B(O)N12 gave a photoluminescence quantum yield (in CC#N) of 0.97, a photoluminescence quantum yield (in CO) of 0.74 and a photoluminescence quantum yield (in CS(C)=O) of 0.12. It also gave a photoluminescence quantum yield (in ClC(Cl)Cl) of 1.
C(=C\c1ccccn1)/c1ccc(N(c2ccc(/C=C/c3ccccn3)cc2)c2ccc(-c3nc4ccccc4nc3-c3ccc(N(c4ccc(/C=C/c5ccccn5)cc4)c4ccc(/C=C/c5ccccn5)cc4)cc3)cc2)cc1 gave a photoluminescence quantum yield (in C1CCOC1) of 0.55.
In the case of COC(=O)C1=C(C(=O)OC)C2(c3ccccc3-c3ccccc32)[C@@H](c2ccc([N+](=O)[O-])cc2)C=C2c3cc(OC)c(OC)cc3CCN21, the photoluminescence quantum yield (in ClCCl) is reported as 0.00065.
With COc1ccc(-c2ccc(-c3c4c(nc5ccccc35)-c3cc5c(cc3CC4)-c3nc4ccccc4c(-c4ccc(-c6ccc(OC)cc6)cc4)c3CC5)cc2)cc1 the photoluminescence quantum yield (in ClC(Cl)Cl) was 0.827.
Compound CC1=C(C)C(c2c(C)c(C)c3n2[B-](F)(F)[N+]2=C(C)C(C)=C(C)C2=C3)=[N+]2C1=Cc1c(C)c(C)c(C)n1[B-]2(F)F has a photoluminescence quantum yield (in ClCCl) of 0.7.
For CC1=c2c3c4cccc5cccc(c=3c(C)[n+]2[B-](F)(F)n2c(C)c3cc6c(-c7ccccc7)c7c(c(-c8ccccc8)c6cc3c21)-c1cccc2cccc-7c12)c54, the photoluminescence quantum yield (in ClCCl) was 0.7.
Compound F[B-]1(F)n2cccc2C(c2ccccc2)=C2C=CC=[N+]21 has a photoluminescence quantum yield (in Cc1ccccc1) of 0.053 and a photoluminescence quantum yield (in ClCCl) of 0.74.
For c1cc2c([nH]c3c4[nH]c5sccc5c4c4nsnc4c23)s1, the photoluminescence quantum yield (in C1CCOC1) was 0.38, the photoluminescence quantum yield (in CCOC(C)=O) was 0.34 and the photoluminescence quantum yield (in CN(C)C=O) was 0.33. The photoluminescence quantum yield (in Cc1ccccc1) was 0.42 and the photoluminescence quantum yield (in ClCCl) was 0.27.
For c1ccc(-c2nc(-c3ccccc3)c(-c3ccccc3)o2)cc1, the photoluminescence quantum yield (in Cc1ccccc1) was 0.36.
c1ccc2c(c1)[nH]c1c3ccccc3[nH]c21 gave a photoluminescence quantum yield (in CCCO) of 0.89.
With CN(C)c1ccc(/C=C/c2ncc3ccccc3n2)cc1 the photoluminescence quantum yield (in CC#N) was 0.06 and the photoluminescence quantum yield (in ClCCl) was 0.21.
C(#Cc1ccccc1)C(C#Cc1ccccc1)=Cc1cccc(C=C(C#Cc2ccccc2)C#Cc2ccccc2)c1 gave a photoluminescence quantum yield (in ClC(Cl)Cl) of 0.06.
CCCCCCCN1C(=CC2=C([O-])C(=CC3=[N+](CCCCCCC)c4ccccc4C3(C)C)C2=C(C#N)C#N)C(C)(C)c2ccccc21 showed a photoluminescence quantum yield (in C1COCCO1) of 0.19, a photoluminescence quantum yield (in CCO) of 0.13 and a photoluminescence quantum yield (in CN(C)C=O) of 0.08. For the same compound, the photoluminescence quantum yield (in ClC(Cl)Cl) was 0.18.
Nc1cc([NH3+])cc(-c2nc3ccccc3s2)c1 showed a photoluminescence quantum yield (in O) of 0.064.
CSc1sc(C(N)=O)c2nnn(C)c(=O)c12 gave a photoluminescence quantum yield (in C1CCOC1) of 0.5, a photoluminescence quantum yield (in CC#N) of 0.38 and a photoluminescence quantum yield (in CCO) of 0.22. The photoluminescence quantum yield (in CN(C)C=O) was 0.27, the photoluminescence quantum yield (in CO) was 0.16 and the photoluminescence quantum yield (in CS(C)=O) was 0.1.
Cc1ccc(-c2ccc(/C=C/c3ccc(C#N)cc3)cn2)nc1 showed a photoluminescence quantum yield (in CC#N) of 0.27.
Work on CCN(CC)c1ccc2cc(/C=C(\C#N)c3nc4ccccc4o3)c(=O)oc2c1 yielded a photoluminescence quantum yield (in C1COCCO1) of 0.0097, a photoluminescence quantum yield (in CC#N) of 0.0071 and a photoluminescence quantum yield (in CCO) of 0.0158. The photoluminescence quantum yield (in CCOC(C)=O) was 0.0068, the photoluminescence quantum yield (in CN(C)C=O) was 0.0307 and the photoluminescence quantum yield (in CO) was 0.0157. For the same compound, the photoluminescence quantum yield (in CS(C)=O) was 0.0263, the photoluminescence quantum yield (in Cc1ccccc1) was 0.0061 and the photoluminescence quantum yield (in ClCCl) was 0.0066.
For COc1ccc(/C=C/c2nc(/C=C/c3ccc(N(c4ccccc4)c4ccccc4)cc3)cc(/C=C/c3ccc(N(c4ccccc4)c4ccccc4)cc3)n2)cc1, the photoluminescence quantum yield (in ClCCl) was 0.91.
